From publication PMC4858680, “A platinum-based hybrid drug design approach to circumvent acquired resistance to molecular targeted tyrosine kinase inhibitors” (Scientific Reports, 2016)
Where two headings read alike, the source gives them in different places.

Assays:
[1] = target: T1, HCK (Homo sapiens, UniProt P08631); type: binding; settings: 10 μM
T1 construct: purchased DiscoveRx KINOMEscan

[2] = target: FGFR3 (Homo sapiens, UniProt P22607); settings: 10 μM
[3] = target: T2, AXL (Homo sapiens, UniProt P30530); settings: 10 μM
T2 sequence (P30530 26-894): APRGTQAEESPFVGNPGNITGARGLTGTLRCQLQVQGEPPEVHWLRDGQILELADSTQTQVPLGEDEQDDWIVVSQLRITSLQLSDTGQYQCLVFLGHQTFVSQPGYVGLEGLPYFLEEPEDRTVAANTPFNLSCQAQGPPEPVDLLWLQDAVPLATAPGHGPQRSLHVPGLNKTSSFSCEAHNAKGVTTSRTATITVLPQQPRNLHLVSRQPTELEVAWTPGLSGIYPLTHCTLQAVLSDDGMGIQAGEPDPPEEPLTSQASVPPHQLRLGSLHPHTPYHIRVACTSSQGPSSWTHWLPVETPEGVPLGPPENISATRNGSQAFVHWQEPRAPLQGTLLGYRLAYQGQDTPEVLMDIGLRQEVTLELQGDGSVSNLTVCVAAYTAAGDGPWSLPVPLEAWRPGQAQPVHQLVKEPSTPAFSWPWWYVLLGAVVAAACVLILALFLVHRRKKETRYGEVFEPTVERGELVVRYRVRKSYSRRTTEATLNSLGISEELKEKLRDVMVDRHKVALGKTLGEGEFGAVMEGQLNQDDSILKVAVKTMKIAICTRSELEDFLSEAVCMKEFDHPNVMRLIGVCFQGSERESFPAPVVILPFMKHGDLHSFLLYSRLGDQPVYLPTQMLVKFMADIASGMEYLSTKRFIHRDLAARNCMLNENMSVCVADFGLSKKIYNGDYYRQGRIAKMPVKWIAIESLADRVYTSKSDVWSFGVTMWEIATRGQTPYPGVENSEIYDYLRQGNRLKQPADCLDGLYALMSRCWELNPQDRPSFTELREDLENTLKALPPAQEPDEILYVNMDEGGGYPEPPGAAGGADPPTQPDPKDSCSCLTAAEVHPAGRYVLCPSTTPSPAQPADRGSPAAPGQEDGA

[4] = target: T3, EPHA6 (Homo sapiens, UniProt Q9UF33); settings: 10 μM
T3 sequence (Q9UF33 23-1036): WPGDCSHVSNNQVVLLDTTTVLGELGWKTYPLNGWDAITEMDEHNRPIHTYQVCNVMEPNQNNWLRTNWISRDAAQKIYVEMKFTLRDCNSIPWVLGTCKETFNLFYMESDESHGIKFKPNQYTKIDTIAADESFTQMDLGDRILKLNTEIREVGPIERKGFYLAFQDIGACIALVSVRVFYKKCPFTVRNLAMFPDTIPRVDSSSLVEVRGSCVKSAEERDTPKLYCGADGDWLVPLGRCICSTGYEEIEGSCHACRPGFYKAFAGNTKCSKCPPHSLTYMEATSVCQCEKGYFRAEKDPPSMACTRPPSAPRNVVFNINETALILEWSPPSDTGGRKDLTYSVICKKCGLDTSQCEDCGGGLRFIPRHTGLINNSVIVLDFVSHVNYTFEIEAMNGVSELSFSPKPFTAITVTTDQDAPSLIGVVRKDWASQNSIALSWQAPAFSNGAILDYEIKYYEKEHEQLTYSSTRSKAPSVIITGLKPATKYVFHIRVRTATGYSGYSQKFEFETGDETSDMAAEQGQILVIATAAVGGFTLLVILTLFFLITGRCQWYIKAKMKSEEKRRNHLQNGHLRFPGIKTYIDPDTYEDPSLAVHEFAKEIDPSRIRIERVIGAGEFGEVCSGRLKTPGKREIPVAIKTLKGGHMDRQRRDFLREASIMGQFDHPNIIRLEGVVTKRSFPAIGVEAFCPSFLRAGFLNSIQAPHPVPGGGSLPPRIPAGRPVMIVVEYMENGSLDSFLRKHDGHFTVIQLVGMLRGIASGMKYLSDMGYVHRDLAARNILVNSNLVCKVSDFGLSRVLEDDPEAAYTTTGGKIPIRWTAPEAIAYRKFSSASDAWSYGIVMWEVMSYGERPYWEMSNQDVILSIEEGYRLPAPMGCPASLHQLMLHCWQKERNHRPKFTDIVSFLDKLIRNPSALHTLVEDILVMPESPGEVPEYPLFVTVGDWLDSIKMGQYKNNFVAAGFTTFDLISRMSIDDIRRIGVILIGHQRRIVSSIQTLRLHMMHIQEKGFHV

[5] = target: TIE2 (Homo sapiens, UniProt Q02763); settings: 10 μM
[6] = target: RET (Homo sapiens, UniProt P07949); settings: 10 μM
[7] = target: PDGFRA (Homo sapiens, UniProt P16234); settings: 10 μM
[8] = target: T4, FER (Homo sapiens, UniProt P16591); type: binding; settings: for Percent control: 10 μM
T4 construct: purchased DiscoveRx KINOMEscan

[9] = target: T5, ITK (Homo sapiens, UniProt Q08881); settings: 10 μM
T5 sequence (Q08881 1-620): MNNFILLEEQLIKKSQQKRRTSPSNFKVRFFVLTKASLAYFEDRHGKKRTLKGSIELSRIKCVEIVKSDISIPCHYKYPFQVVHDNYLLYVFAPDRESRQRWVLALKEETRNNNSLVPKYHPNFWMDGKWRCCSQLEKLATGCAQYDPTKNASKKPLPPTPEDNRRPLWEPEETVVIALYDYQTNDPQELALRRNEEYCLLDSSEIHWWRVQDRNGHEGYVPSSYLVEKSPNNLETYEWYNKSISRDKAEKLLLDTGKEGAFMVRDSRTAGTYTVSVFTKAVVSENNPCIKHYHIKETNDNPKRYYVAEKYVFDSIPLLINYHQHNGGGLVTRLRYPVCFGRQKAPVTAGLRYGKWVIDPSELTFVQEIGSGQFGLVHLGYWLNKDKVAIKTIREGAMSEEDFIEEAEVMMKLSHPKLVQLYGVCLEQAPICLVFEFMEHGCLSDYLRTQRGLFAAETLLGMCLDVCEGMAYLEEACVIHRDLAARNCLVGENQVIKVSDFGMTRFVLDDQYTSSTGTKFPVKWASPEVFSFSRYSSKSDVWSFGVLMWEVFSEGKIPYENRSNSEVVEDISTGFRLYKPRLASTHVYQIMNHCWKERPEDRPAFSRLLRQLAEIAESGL

[10] = tested on: H292; assay: Anticancer activity (cytotoxicity) in NSCLC cell line; type: cell-based
[11] = NSCLC, EGFR wild type, read-out: Anticancer activity (IC50) H292
[12] = Homo sapiens, NCI-H292, read-out: Anticancer activity (IC50) H292

FGFR3, sequence (P22607 23-806): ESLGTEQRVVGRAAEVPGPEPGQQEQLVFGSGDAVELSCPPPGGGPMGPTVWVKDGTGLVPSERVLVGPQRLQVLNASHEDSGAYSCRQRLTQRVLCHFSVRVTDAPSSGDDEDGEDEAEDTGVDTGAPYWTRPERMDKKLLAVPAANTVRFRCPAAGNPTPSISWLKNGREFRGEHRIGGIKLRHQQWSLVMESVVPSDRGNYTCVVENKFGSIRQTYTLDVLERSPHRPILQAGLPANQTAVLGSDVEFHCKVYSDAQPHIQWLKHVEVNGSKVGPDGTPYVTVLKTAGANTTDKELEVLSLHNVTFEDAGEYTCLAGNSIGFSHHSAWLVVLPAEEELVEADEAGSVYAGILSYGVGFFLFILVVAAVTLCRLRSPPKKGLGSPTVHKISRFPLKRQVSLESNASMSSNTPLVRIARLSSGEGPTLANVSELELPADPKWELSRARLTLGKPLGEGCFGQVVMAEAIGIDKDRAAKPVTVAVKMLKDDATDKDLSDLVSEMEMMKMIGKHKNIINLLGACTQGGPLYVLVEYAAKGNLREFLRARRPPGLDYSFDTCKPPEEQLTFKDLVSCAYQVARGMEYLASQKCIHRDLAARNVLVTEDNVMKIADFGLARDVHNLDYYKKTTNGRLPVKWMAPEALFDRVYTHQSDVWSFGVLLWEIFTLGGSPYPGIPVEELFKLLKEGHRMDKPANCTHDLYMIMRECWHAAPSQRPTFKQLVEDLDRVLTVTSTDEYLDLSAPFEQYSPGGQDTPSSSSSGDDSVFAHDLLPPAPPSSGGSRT
TIE2, sequence (Q02763 23-1124): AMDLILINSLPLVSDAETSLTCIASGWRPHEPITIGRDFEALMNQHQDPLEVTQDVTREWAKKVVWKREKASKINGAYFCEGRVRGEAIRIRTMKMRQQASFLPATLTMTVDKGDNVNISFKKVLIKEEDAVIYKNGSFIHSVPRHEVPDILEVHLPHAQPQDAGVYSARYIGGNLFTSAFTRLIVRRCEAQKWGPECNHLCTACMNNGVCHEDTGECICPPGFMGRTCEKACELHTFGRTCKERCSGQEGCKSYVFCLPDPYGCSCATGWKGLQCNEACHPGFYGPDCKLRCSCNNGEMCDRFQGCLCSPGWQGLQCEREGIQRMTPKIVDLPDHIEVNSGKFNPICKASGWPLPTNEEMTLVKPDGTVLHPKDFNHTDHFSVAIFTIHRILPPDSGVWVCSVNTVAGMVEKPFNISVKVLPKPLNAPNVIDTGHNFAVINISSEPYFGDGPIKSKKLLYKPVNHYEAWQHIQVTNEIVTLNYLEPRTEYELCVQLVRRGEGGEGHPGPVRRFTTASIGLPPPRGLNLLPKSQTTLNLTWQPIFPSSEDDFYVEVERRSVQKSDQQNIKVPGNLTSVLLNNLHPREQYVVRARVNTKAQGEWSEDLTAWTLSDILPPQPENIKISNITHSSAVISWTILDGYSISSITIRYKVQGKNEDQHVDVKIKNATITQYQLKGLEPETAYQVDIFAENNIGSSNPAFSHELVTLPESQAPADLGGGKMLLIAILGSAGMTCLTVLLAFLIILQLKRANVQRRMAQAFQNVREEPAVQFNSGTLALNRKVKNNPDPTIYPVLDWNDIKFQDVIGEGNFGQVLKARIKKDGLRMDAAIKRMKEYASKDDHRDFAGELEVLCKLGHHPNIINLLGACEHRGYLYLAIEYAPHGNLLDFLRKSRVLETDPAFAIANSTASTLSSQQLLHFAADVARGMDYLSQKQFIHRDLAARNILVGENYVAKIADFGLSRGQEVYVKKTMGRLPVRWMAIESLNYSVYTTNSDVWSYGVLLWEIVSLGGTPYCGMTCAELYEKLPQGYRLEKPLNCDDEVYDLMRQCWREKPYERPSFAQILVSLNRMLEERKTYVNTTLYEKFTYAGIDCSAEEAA
PDGFRA, sequence (P16234 24-1089): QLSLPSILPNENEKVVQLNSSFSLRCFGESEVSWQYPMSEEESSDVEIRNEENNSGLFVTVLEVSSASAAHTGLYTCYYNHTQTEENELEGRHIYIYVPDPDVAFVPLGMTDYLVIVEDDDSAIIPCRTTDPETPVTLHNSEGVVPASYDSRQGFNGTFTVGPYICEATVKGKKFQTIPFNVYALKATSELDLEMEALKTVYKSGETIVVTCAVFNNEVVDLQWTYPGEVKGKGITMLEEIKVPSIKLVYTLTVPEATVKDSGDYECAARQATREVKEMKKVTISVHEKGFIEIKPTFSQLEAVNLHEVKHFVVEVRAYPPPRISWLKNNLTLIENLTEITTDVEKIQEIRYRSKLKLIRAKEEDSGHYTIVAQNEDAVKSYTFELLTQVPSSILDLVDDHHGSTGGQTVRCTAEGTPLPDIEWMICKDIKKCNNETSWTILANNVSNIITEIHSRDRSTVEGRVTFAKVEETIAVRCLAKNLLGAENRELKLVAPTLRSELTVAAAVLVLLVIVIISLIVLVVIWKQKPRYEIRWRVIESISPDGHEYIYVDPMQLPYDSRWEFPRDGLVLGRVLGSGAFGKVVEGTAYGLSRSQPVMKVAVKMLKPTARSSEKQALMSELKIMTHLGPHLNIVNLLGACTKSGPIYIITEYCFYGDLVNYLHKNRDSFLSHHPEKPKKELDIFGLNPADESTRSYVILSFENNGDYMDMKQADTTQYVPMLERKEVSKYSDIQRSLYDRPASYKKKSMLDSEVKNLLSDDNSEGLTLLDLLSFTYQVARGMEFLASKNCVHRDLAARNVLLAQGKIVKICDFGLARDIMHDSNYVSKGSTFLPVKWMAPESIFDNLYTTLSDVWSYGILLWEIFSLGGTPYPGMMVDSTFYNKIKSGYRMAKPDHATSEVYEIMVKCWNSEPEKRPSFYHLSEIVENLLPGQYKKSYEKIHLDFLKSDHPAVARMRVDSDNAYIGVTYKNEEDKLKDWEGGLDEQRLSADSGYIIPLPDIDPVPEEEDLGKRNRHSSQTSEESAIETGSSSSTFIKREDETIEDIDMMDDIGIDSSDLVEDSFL
T4 sequence (P16591 whole entry): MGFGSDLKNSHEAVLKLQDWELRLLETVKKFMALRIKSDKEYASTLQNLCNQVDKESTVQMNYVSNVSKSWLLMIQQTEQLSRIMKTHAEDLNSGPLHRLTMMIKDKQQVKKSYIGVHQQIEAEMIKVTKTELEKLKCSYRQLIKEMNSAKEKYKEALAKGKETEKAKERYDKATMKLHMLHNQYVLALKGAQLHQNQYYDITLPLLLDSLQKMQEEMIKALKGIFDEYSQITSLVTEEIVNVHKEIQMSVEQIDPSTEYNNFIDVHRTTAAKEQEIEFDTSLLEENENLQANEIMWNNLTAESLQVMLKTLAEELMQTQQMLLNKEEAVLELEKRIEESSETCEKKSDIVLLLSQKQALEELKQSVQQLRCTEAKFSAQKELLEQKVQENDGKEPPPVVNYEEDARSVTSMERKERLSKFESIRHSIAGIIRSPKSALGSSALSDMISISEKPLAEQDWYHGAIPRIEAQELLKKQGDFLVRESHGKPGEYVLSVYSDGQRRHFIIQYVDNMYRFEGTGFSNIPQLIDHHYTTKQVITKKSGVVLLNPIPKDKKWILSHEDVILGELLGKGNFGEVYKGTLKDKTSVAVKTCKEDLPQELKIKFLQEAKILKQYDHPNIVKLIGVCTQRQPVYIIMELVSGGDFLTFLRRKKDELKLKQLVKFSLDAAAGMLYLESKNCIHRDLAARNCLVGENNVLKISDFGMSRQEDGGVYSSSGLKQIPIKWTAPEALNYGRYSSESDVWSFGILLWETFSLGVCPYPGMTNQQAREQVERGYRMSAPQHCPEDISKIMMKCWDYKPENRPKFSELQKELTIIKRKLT
T1 sequence (P08631 whole entry): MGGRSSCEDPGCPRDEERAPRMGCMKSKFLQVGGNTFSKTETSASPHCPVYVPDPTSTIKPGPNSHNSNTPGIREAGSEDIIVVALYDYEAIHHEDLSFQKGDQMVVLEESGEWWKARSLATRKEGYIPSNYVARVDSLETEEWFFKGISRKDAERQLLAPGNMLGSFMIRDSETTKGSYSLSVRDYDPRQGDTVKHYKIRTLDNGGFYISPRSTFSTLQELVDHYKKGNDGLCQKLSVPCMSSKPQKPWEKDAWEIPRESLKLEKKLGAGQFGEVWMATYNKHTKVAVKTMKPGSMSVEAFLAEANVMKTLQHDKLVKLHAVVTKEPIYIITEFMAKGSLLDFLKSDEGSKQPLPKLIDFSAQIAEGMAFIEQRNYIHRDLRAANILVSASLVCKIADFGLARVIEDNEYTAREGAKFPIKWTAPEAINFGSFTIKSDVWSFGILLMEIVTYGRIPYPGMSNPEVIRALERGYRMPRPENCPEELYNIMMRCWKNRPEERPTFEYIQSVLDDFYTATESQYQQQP

SMILES | Percent control [1] [%] | Percent control [2] [%] | Percent control [3] [%] | Percent control [4] [%] | Percent control [5] [%] | Percent control [6] [%] | Percent control [7] [%] | Percent control [8] [%] | Percent control [9] [%] | IC50 [10, 11] [µM] | IC50 [10, 12] [µM] | remaining binding at 10 µM ([8]; read-out: Percent control) [%]
Cc1ccc(NC(=O)c2ccc(CN3CCN(C)CC3)cc2)cc1Nc1nccc(-c2cccnc2)[n+]1[Pt-2]1([Cl])[NH2+]C2CCCCC2[NH2+]1 (stereo not drawn) [1b, oxaliplatin-imatinib] | 82 | 94 | 100 | 90 | 94 | 95 | 1.2 | 89 | 100 |  |  | 
C#Cc1cccc(Nc2c3cc(OCCOC)c(OCCOC)cc3nc[n+]2[Pt@SP2-2]([NH3+])([NH3+])[Cl])c1 [2a, cisplatin-erlotinib] | 64 | 89 | 93 | 71 | 94 | 46 | 100 | 95 | 84 | 3.27 ± 1.75 |  | 
COc1cc2c(Nc3ccc(Br)cc3F)[n+]([Pt-2]3([Cl])[NH2+]C4CCCCC4[NH2+]3)cnc2cc1OCC1CCN(C)CC1 (stereo not drawn) [3b, oxaliplatin-vandetanib] |  |  | 19 | 6.3 | 49 |  | 5.7 | 90 | 95 | 9.32 ± 1.01 |  | 
C#Cc1cccc(Nc2ncnc3cc(OCCOC)c(OCCOC)cc23)c1 [Erlotinib] |  |  |  |  |  |  |  |  |  |  | 0.22 ± 0.12 | 
Cc1ccc(NC(=O)c2ccc(CN3CCN(C)CC3)cc2)cc1Nc1nccc(-c2cccnc2)n1 [Imatinib, reference compound] | 100 | 100 | 100 | 100 | 100 | 100 |  | 100 |  |  |  | 
COc1cc2c(Nc3ccc(Br)cc3F)ncnc2cc1OCC1CCN(C)CC1 [Vandetanib, reference compound] |  |  |  |  |  |  |  |  |  |  | 6.24 ± 0.94 | 100
